Like-named read-outs stand apart in the source and are kept apart here.
Test: Ocular tissue distribution and pharmacokinetics, 7.5 and 15 mg/kg oral, pigmented Dutch Belted rabbits (Example 7)
Type: in vivo
Details: for Mean retina concentration / Mean plasma concentration / concentration at 0 h / concentration at 1 h / concentration at 6 h / concentration at 24 h / concentration at 96 h / concentration at 168 h / concentration at 12 h / concentration at 240 h: DB rabbits; for Tmax / concentration at 0 h / concentration at 1 h / concentration at 6 h / concentration at 24 h / concentration at 96 h / concentration at 168 h / concentration at 12 h / concentration at 240 h / MRT last: Dutch Belted, rabbit; for concentration at 0 h / concentration at 1 h / concentration at 6 h / concentration at 24 h / concentration at 96 h / concentration at 168 h / concentration at 12 h / concentration at 240 h: oral
Protocol: For Group 1, two animals/time point were sacrificed via an overdose of sodium pentobarbital at approximately 1, 6, 12, 24, 96, 168, and 240 hours postdose. Blood (approximately 2 mL) was collected from all animals at sacrifice into tubes containing K2EDTA via exsanguination (cardiac puncture).
For Groups 2 through 4, blood (approximately 2 mL) was collected via a jugular vein using a syringe and needle and was transferred into tubes containing K2EDTA at approximately 12 hours after the a.m. dose on Day 15 from the two animals designated for sacrifice at approximately 240 hours after the a.m. dose on Day 15.
For Groups 2 through 4, two animals/group/time point were sacrificed via an overdose of sodium pentobarbital prior to dosing on Day 15 and at approximately 1, 6, 24, 96, 168, and 240 hours after the a.m. dose on Day 15. Blood (approximately 2 mL) was collected from all animals at sacrifice into tubes containing K2EDTA via exsanguination (cardiac puncture).
Blood was maintained on wet ice, in chilled cryoracks, or at approximately 5° C. prior to centrifugation to obtain plasma. Centrifugation began within 1 hour of collection (Deviation). Plasma was placed into 96-well tubes with barcode labels. Plasma was maintained on dry ice prior to storage at approximately −70° C.
At the time of sacrifice, both eyes were enucleated, and the following tissues were collected. Each eye was flash-frozen in liquid nitrogen for 15 to 20 seconds. The enucleated eye was placed on dry ice or stored at approximately −70° C. for at least 2 hours. Within approximately 3 days, the frozen matrices were collected as right and left eyes for each matrix into the specific tube type listed.
At the time of frozen collection, the ocular tissues were rinsed with saline and blotted dry (as appropriate), weighed, and placed on dry ice. All ocular tissues were collected as single samples.

[1] = Choroid-RPE (OU), male DB rabbits, Group 1, Day 1, […] single oral dose
[2] = Choroid-RPE (OU), male DB rabbits, Group 2, Day 15, […] BID oral (15 mg/kg/day)
[3] = Choroid-RPE (OU), male DB rabbits, Group 3, Day 15, 15 mg/kg/dose BID oral (30 mg/kg/day)
[4] = choroid-RPE, 15 mg/kg, Day 15, 15 mg/kg BID, read-out: Mean Choroid-RPE Concentration
[5] = choroid-RPE, […], Day 1, […] single dose, read-out: Mean Choroid-RPE Concentration
[6] = choroid-RPE, […], Day 15, […] BID, read-out: Mean Choroid-RPE Concentration
[7] = iris-ciliary body (ICB), ICB (OU), male DB rabbits, Group 1, Day 1, 7.5 mg/kg single oral dose
[8] = iris-ciliary body, 15 mg/kg, Day 15, 15 mg/kg BID, read-out: Mean Iris-Ciliary Concentration
[9] = iris-ciliary body, […], Day 1, […] single dose, read-out: Mean Iris-Ciliary Concentration
[10] = iris-ciliary body, […], Day 15, […] BID, read-out: Mean Iris-Ciliary Concentration
[11] = plasma, 15 mg/kg, Day 15, 15 mg/kg BID, read-out: Mean Plasma Concentration
[12] = plasma, […], Day 1, […] single dose, read-out: Mean Plasma Concentration
[13] = plasma, […], Day 15, […] BID, read-out: Mean Plasma Concentration
[14] = retina, 15 mg/kg, Day 15, 15 mg/kg BID, read-out: Mean Retina Concentration
[15] = retina, […], Day 15, […] BID, read-out: Mean Retina Concentration

Compound: CC(=O)c1nn(CC(=O)N2C[C@H](F)C[C@H]2C(=O)Nc2cccc(Br)n2)c2ccc(-c3cnc(C)nc3)cc12 [Compound 1, (2S,4R)-1-(2-(3-Acetyl-5-(2-methylpyrimidin-5-yl)-1H-indazol-1-yl)acetyl)-N-(6-bromopyridin-2-yl)-4-fluoropyrrolidine-2-carboxamide]
- Ocular tissue exposure in melanin-containing tissues (ICB and choroid-RPE), DB compared to NZW rabbits (30 mg/kg/day (15 mg/kg/dose, BID)): greater than 10 fold
- AUC0-12 [1]: 5550 ng·h/g
- AUC0-240 [1]: 14000 ng·h/g
- AUC(0-24) [1]: 7580 ng·h/g
- AUC(0-inf) [1]: 14500 ng·h/g
- AUC(0-t) [1]: 14000 ng·h/g
- Ctrough [1]: 260 ng/g
- DN AUC0-12 [1]: 740 (h*ng/g)/(mg/kg/dose)
- DN AUC0-24 [1]: 1010 (h*ng/g)/(mg/kg/day)
- DN Cmax [1]: 96.8 (ng/g)/(mg/kg/day
- AUC0-12 [2]: 18500 ng·h/g
- AUC0-240 [2]: 89100 ng·h/g
- AUC(0-24) [2]: 30100 ng·h/g
- AUC(0-t) [2]: 89100 ng·h/g
- Ctrough [2]: 1250 ng/g
- DN AUC0-12 [2]: 2470 (h*ng/g)/(mg/kg/dose)
- DN AUC0-24 [2]: 4020 (h*ng/g)/(mg/kg/day)
- DN Cmax [2]: 267 (ng/g)/(mg/kg/day
- AUC0-12 [3]: 28200 ng·h/g
- AUC0-240 [3]: 151000 ng·h/g
- AUC(0-24) [3]: 47500 ng·h/g
- AUC(0-t) [3]: 151000 ng·h/g
- Ctrough [3]: 1740 ng/g
- DN AUC0-12 [3]: 1880 (h*ng/g)/(mg/kg/dose)
- DN AUC0-24 [3]: 3170 (h*ng/g)/(mg/kg/day)
- DN Cmax [3]: 265 (ng/g)/(mg/kg/day
- Mean retina concentration (Day 1, […] single dose, 24 hr): BLQ
- Mean plasma concentration (Day 1, […] single dose, 96 hr): BLQ
- Mean retina concentration (Day 1, […] single dose, 96 hr): BLQ
- Mean plasma concentration (Day 1, […] single dose, 168 hr): BLQ
- Mean retina concentration (Day 1, […] single dose, 168 hr): BLQ
- Mean plasma concentration (Day 1, […] single dose, 240 hr): BLQ
- Mean retina concentration (Day 1, […] single dose, 240 hr): BLQ
- Mean plasma concentration (Day 15, 15 mg/kg BID, 96 hr): BLQ
- Mean plasma concentration (Day 15, 15 mg/kg BID, 168 hr): BLQ
- Mean plasma concentration (Day 15, 15 mg/kg BID, 240 hr): BLQ
- Mean plasma concentration (Day 15, […] BID, 96 hr): BLQ
- Mean plasma concentration (Day 15, […] BID, 168 hr): BLQ
- Mean plasma concentration (Day 15, […] BID, 240 hr): BLQ
- Tmax (choroid-RPE (choroid-retinal pigment epithelium), Choroid-RPE (OU), male DB rabbits, Group 1, Day 1, 7.5 mg/kg single oral dose): 1 h
- concentration at 0 h [4]: 1540 ng/g
- concentration at 1 h [4]: 3970 ng/g
- concentration at 6 h [4]: 1880 ng/g
- concentration at 24 h (choroid-RPE, 15 mg/kg, Day 15, 15 mg/kg BID, 24 hr, read-out: Mean Choroid-RPE Concentration): 1470 ng/g
- concentration at 96 h (choroid-RPE, 15 mg/kg, Day 15, 15 mg/kg BID, 96 hr, read-out: Mean Choroid-RPE Concentration): 441 ng/g
- concentration at 168 h (choroid-RPE, 15 mg/kg, Day 15, 15 mg/kg BID, 168 hr, read-out: Mean Choroid-RPE Concentration): 195 ng/g
- concentration at 1 h [5]: 726 ng/g
- concentration at 6 h [5]: 472 ng/g
- concentration at 12 h [5]: 260 ng/g
- concentration at 24 h (choroid-RPE, […], Day 1, […] single dose, 24 hr, read-out: Mean Choroid-RPE Concentration): 78 ng/g
- concentration at 96 h (choroid-RPE, […], Day 1, […] single dose, 96 hr, read-out: Mean Choroid-RPE Concentration): 28.4 ng/g
- concentration at 168 h (choroid-RPE, […], Day 1, […] single dose, 168 hr, read-out: Mean Choroid-RPE Concentration): 19.4 ng/g
- concentration at 0 h [6]: 695 ng/g
- concentration at 1 h [6]: 2000 ng/g
- concentration at 6 h [6]: 1530 ng/g
- concentration at 24 h (choroid-RPE, […], Day 15, […] BID, 24 hr, read-out: Mean Choroid-RPE Concentration): 685 ng/g
- concentration at 96 h (choroid-RPE, […], Day 15, […] BID, 96 hr, read-out: Mean Choroid-RPE Concentration): 238 ng/g
- concentration at 168 h (choroid-RPE, […], Day 15, […] BID, 168 hr, read-out: Mean Choroid-RPE Concentration): 183 ng/g
- concentration at 240 h (choroid-retinal pigment epithelium (choroid-RPE), 15 mg/kg, Day 15, 15 mg/kg BID, 240 hr, read-out: Mean Choroid-RPE Concentration): 119 ng/g
- concentration at 240 h (choroid-retinal pigment epithelium (choroid-RPE), […], Day 1, […] single dose, 240 hr, read-out: Mean Choroid-RPE Concentration): 5.23 ng/g
- concentration at 240 h (choroid-retinal pigment epithelium (choroid-RPE), […], Day 15, […] BID, 240 hr, read-out: Mean Choroid-RPE Concentration): 111 ng/g
- MRT last (choroid-retinal pigment epithelium (choroid-RPE), Choroid-RPE (OU), male DB rabbits, Group 1, Day 1, 7.5 mg/kg single oral dose): 42.8 h
- Tmax (choroid-retinal pigment epithelium (choroid-RPE), Choroid-RPE (OU), male DB rabbits, Group 2, Day 15, 7.5 mg/kg/dose BID oral (15 mg/kg/day)): 1 h
- Tmax (choroid-retinal pigment epithelium (choroid-RPE), Choroid-RPE (OU), male DB rabbits, Group 3, Day 15, 15 mg/kg/dose BID oral (30 mg/kg/day)): 1 h
- MRT last [7]: 5.59 h
- Tmax [7]: 1 h
- Tmax (iris-ciliary body (ICB), ICB (OU), male DB rabbits, Group 3, Day 15, 15 mg/kg/dose BID oral (30 mg/kg/day)): 1 h
- concentration at 1 h [8]: 2050 ng/g
- concentration at 6 h [8]: 939 ng/g
- concentration at 24 h (iris-ciliary body, 15 mg/kg, Day 15, 15 mg/kg BID, 24 hr, read-out: Mean Iris-Ciliary Concentration): 460 ng/g
- concentration at 1 h [9]: 435 ng/g
- concentration at 6 h [9]: 163 ng/g
- concentration at 24 h (iris-ciliary body, […], Day 1, […] single dose, 24 hr, read-out: Mean Iris-Ciliary Concentration): 31.4 ng/g
- concentration at 1 h [10]: 943 ng/g
- concentration at 6 h [10]: 634 ng/g
- concentration at 24 h (iris-ciliary body, […], Day 15, […] BID, 24 hr, read-out: Mean Iris-Ciliary Concentration): 184 ng/g
- concentration at 0 h [11]: 36.4 ng/mL
- concentration at 1 h [11]: 910 ng/mL
- concentration at 6 h [11]: 130 ng/mL
- concentration at 12 h [11]: 54.3 ng/mL
- concentration at 24 h (plasma, 15 mg/kg, Day 15, 15 mg/kg BID, 24 hr, read-out: Mean Plasma Concentration): 10.5 ng/mL
- concentration at 1 h [12]: 423 ng/mL
- concentration at 6 h [12]: 25.1 ng/mL
- concentration at 12 h [12]: 14.8 ng/mL
- concentration at 24 h (plasma, […], Day 1, […] single dose, 24 hr, read-out: Mean Plasma Concentration): 3.26 ng/mL
- concentration at 0 h [13]: 22.2 ng/mL
- concentration at 1 h [13]: 440 ng/mL
- concentration at 6 h [13]: 90.1 ng/mL
- concentration at 12 h [13]: 29.6 ng/mL
- concentration at 24 h (plasma, […], Day 15, […] BID, 24 hr, read-out: Mean Plasma Concentration): 6.64 ng/mL
- concentration at 6 h (retina, 15 mg/kg BID, Day 15, 15 mg/kg BID, read-out: Mean Retina Concentration): 115 ng/g
- concentration at 24 h (retina, 15 mg/kg BID, Day 15, 15 mg/kg BID, 24 hr, read-out: Mean Retina Concentration): 139 ng/g
- concentration at 96 h (retina, 15 mg/kg BID, Day 15, 15 mg/kg BID, 96 hr, read-out: Mean Retina Concentration): 31.4 ng/g
- concentration at 168 h (retina, 15 mg/kg BID, Day 15, 15 mg/kg BID, 168 hr, read-out: Mean Retina Concentration): 22.5 ng/g
- concentration at 240 h (retina, 15 mg/kg BID, Day 15, 15 mg/kg BID, 240 hr, read-out: Mean Retina Concentration): 19.7 ng/g
- concentration at 0 h [14]: 45 ng/g
- concentration at 1 h [14]: 1120 ng/g
- concentration at 1 h (retina, […], Day 1, […] single dose, read-out: Mean Retina Concentration): 188 ng/g
- concentration at 0 h [15]: 20.7 ng/g
- concentration at 1 h [15]: 306 ng/g
